The values below come from patent EP4786486A1, “PEPTIDES FOR TREATING CARDIAC DISEASES” (Universidad Complutense De Madrid, priority 2023, dated 2025).

Where no end group is shown, it is not given here.

Test [1] deals with human Kir2.1 channels. The experiment in a line: IKir2.1 density, whole-cell patch-clamp in CHO cells co-transfected with Kir2.1 and the cDNA encoding the peptide. In kind it is cell-based. The following applies: CHO cells co-transfected with cDNA SEQ ID NO: 5; vs. cells transfected only with Kir2.1 channels; P<0.05. How it is done: To do this, CHO cells were transfected with the cDNA that encodes the human cardiac channels (Kir2.1) that generate IK1 (Origene, USA) (SEQ ID NO: 22), co-transfecting cells, or not, with the cDNA described in SEQ ID NO: 5. […] The sampling frequency was 4 kHz and the data, filtered at a frequency of 2 kHz, were stored on hard disks for further analysis using the CLAMPFIT application of the pCLAMP software. The current (IKir2.1) was recorded by applying 250 ms pulses from -120 to +20 mV from a holding potential of -60 mV. The density of the same was obtained by normalising the amplitude of IKir2.1 at the end of the pulse by the capacitance of each cell (pA/pF). […] Like in example 2.1, each point represents the mean±SEM of "n" experiments obtained from at least 3 different CHO cell plates. One-way ANOVA followed by the Tukey test. * P<0.05 vs. cells transfected only with Kir2.1 channels.

Test [2] relates to human Nav1.5 channels. The experiment in a line: Density of INa by whole-cell patch-clamp in CHO cells co-transfected with the cDNA encoding the peptide. In kind it is cell-based. As to conditions: CHO cells expressing Nav1.5 plus cDNA of the peptide, vs cells transfected only with Nav1.5 channels. Here is the method:
To analyse the effect of the peptides designed in example 1 on INa and IK1, the cDNA that encodes SEQ ID NO: 3 or SEQ ID NO: 4, described in SEQ ID NO: 5 and 20, respectively, was cloned into a pcDNA3.1^(+)® vector (Invitrogen) for transfection of Chinese hamster ovary (CHO) cells that were in turn transfected with the cDNA that encodes the human Nav1.5 channels (SEQ ID NO: 21). The CHO cells were further co-transfected with the EBO-pcD leu 2 vector (0.5 µg), which encodes the expression of the CD8 surface antigen. The subsequent addition of anti-CD8 antibody, bonded to Dynabeads M450® microspheres, allowed the cells that had been transfected to be identified. […] The currents were recorded at 20-22°C using an Axopatch 200B amplifier, filtered at half the sampling frequency and stored in a computer for further analysis. […] The capacitive current artefacts generated after the application of pulses from 0 mV to +10 mV were recorded at 50 kHz (filtered at 10 kHz) to calculate the capacitance of the cell, the access resistance and the input impedance. […] INa was recorded by applying 50 ms pulses from a holding potential of -120 mV to potentials between -80 and +50 mV in 5 mV increments. […]
For orientation: In patch-clamp work, channel activity is measured electrically.

With “RFTRESLAAIE (listed as Homo sapiens) [SEQ ID NO: 3, 11-amino acid peptide, amino acids 15-25 of human Nav1.5]”, in test [1], the “density of IKir2.1” value is “significantly increase”.

In the case of RFTRESLAAIE [DECA-11, RFTRESLAAIE], the “density of INa” value in test [2] is reported as “significantly increase the density of INa”.
